From PubChem BioAssay (NCI)
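1) Cells in 96-well plates. 2) Compound, 48 h, 5 concentrations. 3) Linear interpolation between surrounding doses. 4) Unreached endpoint = highest concentration. GI50 marks 50% less growth. At the TGI there is no net growth.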

What was measured:
Experiment in all cases: NCI-60 cell line screen, 48 h
[1] = system: HOP-62 NSCLC
[2] = system: CAKI-1 renal
[3] = system: NCI-H522 lung
[4] = system: T-47D breast
[5] = system: DU-145 prostate
[6] = system: OVCAR-4 ovarian
[7] = system: SK-OV-3 ovarian
[8] = system: RPMI-8226 leukemia
[9] = system: CCRF-CEM leukemia
[10] = system: MALME-3M melanoma
[11] = system: MOLT-4 leukemia
[12] = system: OVCAR-5 ovarian
[13] = system: NCI-H460 lung
[14] = system: SN12C renal

Compound `C=C(C)[C@@H]1CC[C@]2(C(=O)O)CC[C@]3(C)[C@H](CC[C@@H]4[C@@]5(C)C/C(=C/c6ccco6)C(=O)C(C)(C)[C@@H]5CC[C@]43C)[C@@H]12` has a GI50 [1] of 2.77 µM, a TGI [1] of 31.3 µM and a GI50 [2] of 3.5 µM. The TGI [2] was > 100 µM, the GI50 [3] was 2.81 µM and the TGI [3] was 9.85 µM. It also gave a GI50 [4] of 3.2 µM, a TGI [4] of 33.3 µM and a GI50 [5] of 3.07 µM. For the same compound, the TGI [5] was 12.2 µM, the GI50 [6] was 5.9 µM and the TGI [6] was > 100 µM.
`CC(C)CC(N)C(=O)NC(CNC(CCC(N)=O)C(=O)NC(CC(C)C)C(=O)NC(CC(C)C)C(=O)O)Cc1ccc2ccccc2c1` (stereo not given) was tested, and the TGI [1] was > 10 µM, the TGI [2] was > 10 µM and the TGI [7] was > 10 µM. For the same compound, the TGI [8] was > 10 µM, the TGI [9] was > 10 µM and the TGI [10] was > 10 µM. For the same compound, the TGI [11] was > 10 µM, the TGI [5] was > 10 µM and the TGI [6] was > 10 µM. For the same compound, the TGI [12] was > 10 µM, the TGI [13] was > 10 µM and the TGI [14] was > 10 µM.
For `CN(C)CCC(=O)[C@@]1(O)CC[C@H]2[C@@H]3CC=C4C[C@@H](O)CC[C@]4(C)[C@H]3CC[C@@]21C`, the TGI [1] was 30.6 µM, the TGI [2] was 34.6 µM and the TGI [7] was > 66.8 µM. For the same compound, the TGI [3] was 25.3 µM, the TGI [8] was 7.01 µM and the TGI [4] was 23.5 µM. The TGI [9] was > 55.7 µM, the TGI [10] was 28.8 µM and the TGI [11] was 53.1 µM. The TGI [5] was 19.9 µM, the TGI [6] was > 78.2 µM and the TGI [12] was > 100 µM. The TGI [13] was 30.9 µM and the TGI [14] was 32.2 µM.
In the case of `CCCCCCCCCCCCCCCCCCN(C)CC(COC)OP(=O)([O-])OCC[N+](C)(C)C` (stereo not given), the TGI [1] was 5.17 µM, the TGI [2] was 5.27 µM and the TGI [7] was 25.1 µM. For the same compound, the TGI [3] was 4.22 µM, the TGI [8] was 3.14 µM and the TGI [4] was 32.7 µM. For the same compound, the TGI [9] was 5.16 µM, the TGI [10] was 26.6 µM and the TGI [11] was 11 µM. The TGI [5] was 5.13 µM, the TGI [6] was 9.75 µM and the TGI [12] was 5.95 µM. It also gave a TGI [13] of 2.35 µM and a TGI [14] of 14.6 µM.
`CC(=O)NC1C(OCc2ccccc2)OC(CO)C(O)C1OCC(=O)NC(C(=O)NC(CCC(=O)NCCCCCC(=O)Nc1ccc2c(c1)CN1C(=O)c3ccccc3C1=N2)C(N)=O)C(C)C` (stereo not given) was tested, and the TGI [1] was 40.8 µM, the TGI [2] was > 100 µM and the TGI [7] was 44.6 µM. For the same compound, the TGI [8] was > 100 µM, the TGI [4] was 68 µM and the TGI [9] was > 100 µM. For the same compound, the TGI [10] was 46.5 µM, the TGI [11] was > 100 µM and the TGI [5] was > 100 µM. The TGI [6] was 53 µM, the TGI [12] was > 100 µM and the TGI [13] was 51.2 µM. The TGI [14] was > 100 µM.
For `C/C=C\C1OC1(C)c1cc(=O)c2c(C)cc3c(c2o1)C(=O)c1c(O)c(C2CC(C)(N(C)C)C(OC(C)=O)C(C)O2)cc(C2CC(N(C)C)C(O)C(C)O2)c1C3=O` (stereo not given), the TGI [1] was 0.0121 µM, the TGI [2] was 0.0431 µM and the TGI [7] was 0.0498 µM. It also gave a TGI [3] of 0.00964 µM, a TGI [8] of 0.0574 µM and a TGI [4] of 0.0324 µM. The TGI [9] was 0.379 µM, the TGI [10] was 0.0566 µM and the TGI [11] was 0.049 µM. For the same compound, the TGI [5] was 0.0912 µM, the TGI [6] was 0.00888 µM and the TGI [12] was 0.488 µM. For the same compound, the TGI [13] was 0.0129 µM and the TGI [14] was 0.0134 µM.
`CC(C)N(CC(=O)O)CC(=O)O` was tested, and the TGI [1] was > 100 µM, the TGI [2] was > 100 µM and the TGI [7] was > 100 µM. The TGI [3] was > 100 µM, the TGI [8] was > 100 µM and the TGI [4] was > 100 µM. For the same compound, the TGI [9] was > 100 µM, the TGI [10] was > 100 µM and the TGI [11] was > 100 µM. For the same compound, the TGI [5] was > 100 µM, the TGI [6] was > 100 µM and the TGI [12] was > 100 µM. The TGI [13] was > 100 µM and the TGI [14] was > 100 µM.
`Nc1ccc(Oc2ccc(C34CC5C6CC7(c8ccc(Oc9ccc(N)cc9)cc8)CC5C(C3)C(C7)C6C4)cc2)cc1` was tested, and the TGI [1] was > 100 µM, the TGI [2] was > 100 µM and the TGI [3] was > 100 µM. The TGI [8] was > 100 µM, the TGI [4] was > 100 µM and the TGI [9] was > 100 µM. The TGI [10] was > 100 µM, the TGI [11] was > 100 µM and the TGI [5] was > 100 µM. The TGI [6] was > 100 µM, the TGI [12] was > 100 µM and the TGI [13] was > 100 µM. For the same compound, the TGI [14] was > 100 µM.
`O=C(c1ccccc1)c1ccc(N2C(=O)/C(=C/c3ccccc3S)N=C2c2ccccc2)c(N2C(=O)/C(=C/c3ccccc3S)N=C2c2ccccc2)c1` was tested, and the TGI [1] was > 100 µM, the TGI [2] was > 100 µM and the TGI [7] was > 100 µM. The TGI [8] was 53.1 µM, the TGI [4] was > 100 µM and the TGI [9] was > 100 µM. The TGI [11] was 56.6 µM, the TGI [5] was > 100 µM and the TGI [6] was > 100 µM. For the same compound, the TGI [12] was > 100 µM, the TGI [13] was > 100 µM and the TGI [14] was > 100 µM.
`O=C1c2cc3c(cc2[C@@H]2C(O)[C@H]4O[C@H]4C4CCN1C42)OCO3` (stereo not given in full) was tested, and the TGI [1] was > 37.5 µM, the TGI [2] was > 37.5 µM and the TGI [7] was > 37.5 µM. The TGI [3] was > 37.5 µM, the TGI [8] was > 37.5 µM and the TGI [9] was > 37.5 µM. For the same compound, the TGI [10] was > 37.5 µM, the TGI [11] was > 37.5 µM and the TGI [6] was > 37.5 µM. For the same compound, the TGI [12] was > 37.5 µM, the TGI [13] was > 37.5 µM and the TGI [14] was > 37.5 µM.
Work on `Cc1nn(CNc2ccc(F)c(Cl)c2)c(=S)n1/N=C/c1ccc(-c2ccc(Cl)cc2Cl)o1` yielded a TGI [1] of 35.9 µM, a TGI [2] of 35.8 µM and a TGI [7] of 33.2 µM. For the same compound, the TGI [3] was 29.7 µM, the TGI [8] was 29.7 µM and the TGI [4] was 58.8 µM. The TGI [9] was 18.5 µM, the TGI [11] was 6.59 µM and the TGI [5] was 30.7 µM. It also gave a TGI [6] of 50 µM, a TGI [12] of 41.2 µM and a TGI [13] of 33.7 µM.
In the case of `C=C1N(C)c2ccc(S(=O)(=O)c3ccc4c(c3)C(C)(C)C(=C)N4C)cc2C1(C)C`, the TGI [1] was > 100 µM, the TGI [2] was > 100 µM and the TGI [7] was > 100 µM. The TGI [3] was 58.7 µM, the TGI [8] was 35.5 µM and the TGI [4] was > 100 µM. For the same compound, the TGI [9] was > 100 µM, the TGI [10] was 79 µM and the TGI [11] was 91.7 µM. For the same compound, the TGI [5] was > 100 µM, the TGI [6] was > 100 µM and the TGI [12] was > 100 µM. The TGI [13] was > 100 µM and the TGI [14] was > 100 µM.
In the case of `O=P1(Oc2ccc(Cl)cc2Cl)Oc2cc3ccccc3cc2O1`, the TGI [1] was > 100 µM, the TGI [2] was > 100 µM and the TGI [7] was > 100 µM. For the same compound, the TGI [3] was 82.6 µM, the TGI [8] was > 60.1 µM and the TGI [9] was > 100 µM. For the same compound, the TGI [10] was > 100 µM, the TGI [11] was > 71.4 µM and the TGI [6] was > 100 µM. For the same compound, the TGI [12] was > 100 µM, the TGI [13] was > 100 µM and the TGI [14] was > 100 µM.
`Cc1csc2nc(-c3cc([N+](=O)[O-])c(Cl)cc3Cl)c(/C=N/N=C(N)N)n12` gave a TGI [1] of 35 µM, a TGI [2] of 29.8 µM and a TGI [3] of 29.4 µM. The TGI [8] was 56.5 µM, the TGI [4] was 33.1 µM and the TGI [9] was > 100 µM. It also gave a TGI [10] of 35.3 µM, a TGI [11] of 18.8 µM and a TGI [5] of 32.3 µM. The TGI [6] was 29.8 µM, the TGI [12] was 49.4 µM and the TGI [13] was 45.7 µM. For the same compound, the TGI [14] was 29.8 µM.
With `Nc1ccc(-c2nc3ccccc3s2)cc1CO` the TGI [1] was > 90.4 µM, the TGI [2] was > 100 µM and the TGI [7] was > 100 µM. For the same compound, the TGI [3] was > 100 µM, the TGI [8] was > 100 µM and the TGI [4] was > 100 µM. For the same compound, the TGI [9] was > 100 µM, the TGI [10] was > 100 µM and the TGI [11] was > 100 µM. For the same compound, the TGI [5] was > 100 µM, the TGI [6] was > 100 µM and the TGI [12] was > 100 µM. The TGI [13] was > 100 µM and the TGI [14] was > 100 µM.
